“And” between values parts separate entries of the source, which are not always exact repeats. Identical values can stand only once.
How the values were obtained:
[1] = Randomized controlled pilot trial: serious adverse events and safety; format: in vivo, human
Description: Death, serious adverse events (SAE's), and grade 3 and 4 adverse events (AEs) are will be assessed and reported throughout the study.
Study patients were assessed daily for 15 days or until discharge, whichever came first. Discharged patients participated in phone or video study visits on days 7 and 15. Clinical assessment performed daily during hospitalization included evaluation of clinical status with daily vital signs, oxygen supplementation type and amount, need for mechanical ventilation, adverse events, and concomitant medications. WBCs, hemoglobin, platelets, electrolytes, BUN, creatinine, liver transaminases, and inflammatory markers, if obtained as part of SOC, were monitored on days 1 through 5, 7, and 15 while patients were hospitalized. […] Self-reported race and ethnicity, obtained from medical records, were collected as demographic information to assess possible differences in disease severity or treatment response. Serious adverse events and grade 3 and 4 adverse events as described in the Division of AIDS Table for Grading the Severity of Adult and Pediatric Adverse Events were recorded.

[2] = system: hospitalized men with COVID-19; experiment: Randomized controlled pilot trial: clinical status and clinical outcomes, progesterone + SOC vs SOC alone; format: in vivo, human
[3] = Control Group After Progesterone n = 9, SAEs after receiving progesterone (crossover)
[4] = 100 mg sc twice daily 5 days + SOC, n = 18
[5] = 100 mg sc twice daily 5 days + SOC, preliminary analysis N = 17
[6] = 7-point ordinal scale, preliminary analysis N = 17, P 0.003 vs SOC
[7] = 7-point ordinal scale, preliminary analysis N = 17, P <0.001 vs SOC
[8] = seven-point ordinal scale, from baseline, n = 18

SMILES: CC(=O)[C@H]1CC[C@H]2[C@@H]3CCC4=CC(=O)CC[C@]4(C)[C@H]3CC[C@]12C [Progesterone, progesterone]
- serious adverse events attributable to progesterone ([1]; 100 mg sc twice daily): no serious adverse events attributable to progesterone
- Any SAE or death [1, 3]: 3 (33.3) No. (%)
- SAE: Cardiac arrest [1, 3]: 0 (0.0) No. (%)
- SAE: Creatinine increased [1, 3]: 0 (0.0) No. (%)
- SAE: DVT [1, 3]: 1 (11.1) No. (%)
- SAE: Death [1, 3]: 0 (0.0) No. (%)
- SAE: Hypoperfusion [1, 3]: 2 (22.2) No. (%)
- SAE: Hypoxia [1, 3]: 3 (33.3) No. (%)
- SAE: Lymphocyte count decreased [1, 3]: 0 (0.0) No. (%)
- SAE: Pulmonary embolism [1, 3]: 0 (0.0) No. (%)
- Any SAE or death ([1]; Progesterone Group n = 18): 2 (11.1) No. (%)
- SAE: Cardiac arrest ([1]; Progesterone Group n = 18): 0 (0.0) No. (%)
- SAE: Creatinine increased ([1]; Progesterone Group n = 18): 0 (0.0) No. (%)
- SAE: DVT ([1]; Progesterone Group n = 18): 1 (5.6) No. (%)
- SAE: Death ([1]; Progesterone Group n = 18): 1 (5.6) No. (%)
- SAE: Hypoperfusion ([1]; Progesterone Group n = 18): 0 (0.0) No. (%)
- SAE: Hypoxia ([1]; Progesterone Group n = 18): 0 (0.0) No. (%)
- SAE: Lymphocyte count decreased ([1]; Progesterone Group n = 18): 0 (0.0) No. (%)
- SAE: Pulmonary embolism ([1]; Progesterone Group n = 18): 1 (5.6) No. (%)
- risk of thromboembolism ([1]; all patients on prophylactic-dose anticoagulation): not associated with any significant increase in the risk of thromboembolism
- tolerability of high serum levels ([1]; levels as high as 288 ng/mL): tolerated well and not associated with any adverse events
- deaths during the total 15-day surveillance period ([1]; progesterone group, not attributable to progesterone): one
- patients with thromboembolic events ([1]; progesterone group, two thromboembolic events in one patient): 5.6%
- Status on day 7: 1: Death [2, 4]: 1 (5.6) No. (%)
- Status on day 7: 2: Hospitalized; on invasive mechanical ventilation or ECMO [2, 4]: 0 (0.0) No. (%)
- Status on day 7: 3: Hospitalized; on high-flow nasal cannula [2, 4]: 2 (11.1) No. (%)
- Status on day 7: 4: Hospitalized; requiring supplemental oxygen (not HFNC) [2, 4]: 2 (11.1) No. (%)
- Status on day 7: 5: Hospitalized; not requiring supplemental oxygen [2, 4]: 4 (22.2) No. (%)
- Status on day 7: 6: Not hospitalized; limitations on activities [2, 4]: 7 (38.9) No. (%)
- Status on day 7: 7: Not hospitalized; no limitations on activities [2, 4]: 2 (11.1) No. (%)
- Status on day 15: 1: Death [2, 4]: 1 (5.6) No. (%)
- Status on day 15: 2: Hospitalized; on invasive mechanical ventilation or ECMO [2, 4]: 0 (0.0) No. (%)
- Status on day 15: 3: Hospitalized; on high-flow nasal cannula [2, 4]: 0 (0.0) No. (%)
- Status on day 15: 4: Hospitalized; requiring supplemental oxygen (not HFNC) [2, 4]: 1 (5.6) No. (%)
- Status on day 15: 5: Hospitalized; not requiring supplemental oxygen [2, 4]: 1 (5.6) No. (%)
- Status on day 15: 6: Not hospitalized; limitations on activities [2, 4]: 8 (44.4) No. (%)
- Status on day 15: 7: Not hospitalized; no limitations on activities [2, 4]: 7 (38.9) No. (%)
- Status at Day 7: 2-Hospitalized; on invasive mechanical ventilation or ECMO [2, 5]: 0 (0.0) n (%)
- Status at Day 7: 3-Hospitalized; on high flow nasal cannula [2, 5]: 2 (11.8) n (%)
- Status at Day 7: 4-Hospitalized; requiring supplemental oxygen (not HFNC) [2, 5]: 2 (11.8) n (%)
- Status at Day 7: 5-Hospitalized; not requiring supplemental oxygen [2, 5]: 4 (23.5) n (%)
- Status at Day 7: 6-Not hospitalized; limitations on activities [2, 5]: 7 (41.2) n (%)
- Status at Day 7: 7-Not hospitalized; no limitations on activities [2, 5]: 2 (11.8) n (%)
- Worst Status Prior to Day 7: 2-Hospitalized; on invasive mechanical ventilation or ECMO [2, 5]: 0 (0.0) n (%)
- Worst Status Prior to Day 7: 3-Hospitalized; on high flow nasal cannula [2, 5]: 5 (29.4) n (%)
- Worst Status Prior to Day 7: 4-Hospitalized; requiring supplemental oxygen (not HFNC) [2, 5]: 11 (64.7) n (%)
- Worst Status Prior to Day 7: 5-Hospitalized; not requiring supplemental oxygen [2, 5]: 1 (5.9) n (%)
- Change from Baseline at Day 7: 0 [2, 6]: 3 (17.6) n (%)
- Change from Baseline at Day 7: +1 [2, 6]: 3 (17.6) n (%)
- Change from Baseline at Day 7: +2 [2, 6]: 7 (41.2) n (%)
- Change from Baseline at Day 7: +3 [2, 6]: 2 (11.8) n (%)
- Change from Baseline at Day 7: −1 [2, 6]: 2 (11.8) n (%)
- Change from Baseline at Day 7: −2 [2, 6]: 0 (0.0) n (%)
- Change from Worst at Day 7: 0 [2, 7]: 3 (17.6) n (%)
- Change from Worst at Day 7: +1 [2, 7]: 4 (23.5) n (%)
- Change from Worst at Day 7: +3 [2, 7]: 2 (11.8) n (%)
- median hospital length of stay (LOS) ([2]; Progesterone Group n = 18): 7.0 days
- median number of days on supplemental oxygen ([2]; Progesterone Group n = 18): 4.5 (IQR, 2.0-6.0) days and 4.5 days
- patients remaining hospitalized at study completion ([2]; day 15, progesterone group): one
- cumulative probability of clinical improvement (increase of at least one point on the seven-point scale or live discharge) ([2]; first seven study days, Kaplan-Meier estimation, one noncompliant patient excluded, log-rank P=0.014 vs control): 0.76 (95% CI, 0.55-0.93)
- fewer days hospitalized than control ([2]; median 7.0 vs 9.5 days): 2.5 days
- patients remaining hospitalized by day 7 ([2]; nine of 18 patients): 50%
- median improvement more than control group, worst clinical status before day 7 vs status on day 7 ([2]; post hoc sensitivity analysis, 95% CI, 1.0-2.0, P=0.006): two
- improvement in clinical status at Day 7 compared to SOC ([2]; preliminary analysis, Wilcoxon rank-sum p=0.003): greater degree of improvement in clinical status at Day 7
- improvement from worst status prior to Day 7 compared to SOC ([2]; preliminary sensitivity analysis, p<0.001): greater improvement over the SOC group
- mechanical ventilation initiated ([2]; progesterone group, vs four of 22 control patients): none
- overall change in score from baseline to day 7, median better than control group ([2]; sensitivity analysis, last assessment before crossing over imputed as day 7 score, 95% CI, 0.0-2.0, P=0.010): 1.5 points
- Change in status on day 7: 0 [2, 8]: 3 (16.7) No. (%)
- Change in status on day 7: +1 [2, 8]: 3 (16.7) No. (%)
- Change in status on day 7: +2 [2, 8]: 7 (38.9) No. (%)
- Change in status on day 7: +3 [2, 8]: 2 (11.1) No. (%)
- Change in status on day 7: −1 [2, 8]: 2 (11.1) No. (%)
- Change in status on day 7: −2 [2, 8]: 0 (0.0) No. (%)
- Change in status on day 7: −3 [2, 8]: 1 (5.6) No. (%)
- Change in status on day 15: 0 [2, 8]: 1 (5.6) No. (%)
- Change in status on day 15: +1 [2, 8]: 4 (22.2) No. (%)
- Change in status on day 15: +2 [2, 8]: 4 (22.2) No. (%)
- Change in status on day 15: +3 [2, 8]: 7 (38.9) No. (%)
- Change in status on day 15: +4 [2, 8]: 1 (5.6) No. (%)
- Change in status on day 15: −1 [2, 8]: 0 (0.0) No. (%)
- Change in status on day 15: −2 [2, 8]: 0 (0.0) No. (%)
- Change in status on day 15: −3 [2, 8]: 1 (5.6) No. (%)
- Change in status on day 7, median (IQR) ([2]; seven-point ordinal scale, from baseline, n = 18, P .024 vs control): 1.5 (0.0 to 2.0)
- Change in status on day 15, median (IQR) ([2]; seven-point ordinal scale, from baseline, n = 18, P .150 vs control): 2.0 (1.0 to 3.0)
- overall improvement in median clinical status score from baseline to day 7 compared with control ([2]; seven-point ordinal scale, 95% CI, 0.0-2.0, P=0.024): 1.5 points

Reference: US20220072008A1 (CEDARS-SINAI MEDICAL CENTER, priority 2020, published 2022)
